The record followed here is ChEMBL document CHEMBL1146758, “Design, synthesis and structure-activity relationship studies of novel indazole analogues as DNA gyrase inhibitors with Gram-positive antibacterial activity” (Bioorg Med Chem Lett, 2004).

Structures are written as SMILES. In brackets after ≈: the same amount, converted by molar mass.

The target of assay [1] is DNA gyrase (Escherichia coli, UniProt P0AES4+P0AES6). The experiment in a line: Inhibitory activity against Escherichia coli DNA gyrase. The assay is classed as protein-complex assay.
In assay [2] the test system is Enterococcus faecalis. The experiment in a line: Inhibitory activity against Enterococcus faecalis ATCC 29212. Format: functional.
The subject of assay [3] is Enterococcus faecalis. The experiment in a line: Inhibitory activity against Enterococcus faecalis KU 1777. Format: functional.
The subject of assay [4] is Staphylococcus aureus. The experiment in a line: Inhibitory activity against Staphylococcus aureus FDA 209P. The assay is classed as functional.
Assay [5] has as its system Staphylococcus aureus. Description: Inhibitory activity against Staphylococcus aureus KMP9. Format: functional.
For assay [6], the system named is Nucleic Acid. The experiment in a line: Escherichia coli DNA topoisomerase IV decatenation activity was determined. The assay is classed as nucleic-acid assay.
Assay [7] addresses T1, DNA topoisomerase II (Homo sapiens, UniProt P11388+Q02880). The experiment in a line: Human DNA topoisomerase II relaxation activity was determined. Format: protein assay.
Assay [8] deals with Nucleic Acid. The experiment in a line: Inhibitory activity against Escherichia coli DNA topoisomerase IV. The assay is classed as nucleic-acid assay.
For assay [9], the target named is T1, DNA topoisomerase II. Description: Inhibitory activity against human DNA topoisomerase II. The assay is classed as protein assay.
[10] abbreviates: Enterococcus faecalis, ATCC 29212, read-out: MIC.
[11] abbreviates: Enterococcus faecalis, read-out: MIC.
Where [12] appears, read: Staphylococcus aureus, read-out: MIC.

The term IC50 denotes the point on the concentration scale where inhibition reaches its midpoint. A higher IC50 goes with weaker potency in that assay. As usually defined, the MIC is the lowest concentration that inhibits growth of the organism. In assay [1], `CCOC(=O)CCCNc1[nH]nc2cccc(OCc3ccc(C(C)(C)C)cc3)c12` gave an IC50 of 39.1 µM. The MIC in assay [2] (setting [10]), in [3] (setting [11]), in assay [4] (setting [12]) and in assay [5] (setting [12]) was 16 µg/mL (≈ 39.1 µM) throughout.

In assay [1], `CNCc1n[nH]c2cccc(OCc3ccc(C(C)(C)C)cc3)c12` gave a half-maximal inhibitory concentration (IC50) of 198 µM. In addition, the MIC is 32 µg/mL (≈ 98.9 µM) in [2] (setting [10]), 16 µg/mL (≈ 49.5 µM) in assay [3] (setting [11]), 32 µg/mL (≈ 98.9 µM) in assay [4] (setting [12]) and 64 µg/mL (≈ 198 µM) in [5] (setting [12]).

As for `Cn1cc(/C=C/c2cc(C3CCNCC3)nn2-c2cccc(Cl)c2)c2cc(Cl)ccc21`, the IC50 in assay [1] was 31 µM; in assay [6], 8 µg/mL (≈ 17.7 µM); in [7] it was greater than 400 µg/mL. Also, the MIC came out at 2 µg/mL (≈ 4.43 µM) in assay [2] (setting [10]), 2 µg/mL (≈ 4.43 µM) in [3] (setting [11]), 1 µg/mL (≈ 2.22 µM) in assay [4] (setting [12]) and 1 µg/mL (≈ 2.22 µM) in assay [5] (setting [12]).

For the compound `CC(C)(C)c1ccc(COc2cccc3[nH]nc(CN[C@H]4CN[C@H](CO)C4)c23)cc1`, the IC50 in assay [1] is 78.3 µM. The minimum inhibitory concentration (MIC) in assay [2] (setting [10]) came to 64 µg/mL (≈ 157 µM); in assay [3] (setting [11]), 32 µg/mL (≈ 78.3 µM); in assay [4] (setting [12]), 32 µg/mL (≈ 78.3 µM); in [5] (setting [12]) it was 64 µg/mL (≈ 157 µM).

The compound `COC(=O)C1CCCC(NCc2cc(/C=C\c3ccc(Cl)c(Cl)c3)[nH]n2)C1` (configuration not stated) had an IC50 in assay [1] of 39.2 µM. Moreover, the minimum inhibitory concentration (MIC) is 16 µg/mL (≈ 39.2 µM) in assay [2] (setting [10]), 16 µg/mL (≈ 39.2 µM) in assay [3] (setting [11]), 4 µg/mL (≈ 9.8 µM) in assay [4] (setting [12]) and 8 µg/mL (≈ 19.6 µM) in assay [5] (setting [12]).

Turning to `CCOC(=O)C1CCCN(Cc2n[nH]c3cccc(OCc4ccc(C(C)(C)C)cc4)c23)C1` (configuration not stated), it took 17.8 µM to reach half-maximal inhibition in [1] (IC50). Besides, the minimum inhibitory concentration (MIC) turned out to be 16 µg/mL (≈ 35.6 µM) in assay [2] (setting [10]), 16 µg/mL (≈ 35.6 µM) in assay [3] (setting [11]), 16 µg/mL (≈ 35.6 µM) in [4] (setting [12]) and 32 µg/mL (≈ 71.2 µM) in [5] (setting [12]).

For `CO[C@@H]1[C@@H](OC(N)=O)[C@@H](O)[C@H](Oc2ccc3c(O)c(NC(=O)c4ccc(O)c(CC=C(C)C)c4)c(=O)oc3c2C)OC1(C)C` [NOVOBIOCIN], the IC50 is 25 µg/mL (≈ 40.8 µM) in assay [8] and greater than 400 µg/mL in [9]. Moreover, the minimum inhibitory concentration (MIC) in assay [2] (setting [10]) came to 2 µg/mL (≈ 3.26 µM); in assay [3] (setting [11]), 2 µg/mL (≈ 3.26 µM); in assay [4] (setting [12]), 0.25 µg/mL (≈ 0.408 µM); in assay [5] (setting [12]), 0.25 µg/mL (≈ 0.408 µM).

Compound `CC(C)(C)c1ccc(COc2cccc3[nH]nc(CN[C@@H]4CN[C@H](CO)C4)c23)cc1` showed an IC50 in assay [1] of 157 µM. Also, the MIC in assay [2] (setting [10]), in assay [3] (setting [11]), in [4] (setting [12]) and in [5] (setting [12]) was 64 µg/mL (≈ 157 µM) in each case.

In the case of `COC(=O)C1CCCC(Nc2[nH]nc3cccc(OCc4cnc(Cl)c(Cl)c4)c23)C1` (configuration not stated), the concentration for half-maximal inhibition (IC50) in assay [1] was 142 µM. The MIC in assay [2] (setting [10]), in assay [3] (setting [11]), in [4] (setting [12]) and in assay [5] (setting [12]) was greater than 128 µg/mL throughout.

Turning to `Cc1cc(=O)oc2cc(CCc3n[nH]c4cccc(OCc5ccc(C(C)(C)C)cc5)c34)ccc12`, the IC50 in assay [1] is 0.536 µM; in [8] it was greater than 128 µg/mL; in assay [9] it was greater than 400 µg/mL. Moreover, the minimal inhibitory concentration (MIC) in assay [2] (setting [10]), in [3] (setting [11]), in assay [4] (setting [12]) and in [5] (setting [12]) was greater than 128 µg/mL in each case.

The compound `COC(=O)C1CCCC(NCc2cc(/C=C/c3ccc(Cl)c(Cl)c3)[nH]n2)C1` (configuration not stated) showed a half-maximal inhibitory concentration (IC50) in [1] of 39.2 µM. The minimum inhibitory concentration (MIC) in [2] (setting [10]) worked out at 16 µg/mL (≈ 39.2 µM); in assay [3] (setting [11]), 16 µg/mL (≈ 39.2 µM); in assay [4] (setting [12]) it was 4 µg/mL (≈ 9.8 µM); in [5] (setting [12]), 8 µg/mL (≈ 19.6 µM).

In [1], `CC(C)(C)c1ccc(COc2cccc3[nH]nc(CN4CCNCC4)c23)cc1` gave a half-maximal inhibitory concentration (IC50) of 169 µM. The MIC came out at 32 µg/mL (≈ 84.5 µM) in assay [2] (setting [10]), 16 µg/mL (≈ 42.3 µM) in [3] (setting [11]), 16 µg/mL (≈ 42.3 µM) in assay [4] (setting [12]) and 32 µg/mL (≈ 84.5 µM) in [5] (setting [12]).

Regarding `COC(=O)C1CCCC(NCc2cc(/C=C\c3cn(C)c4ccc(Cl)cc34)[nH]n2)C1` (stereo in doubt; 8bb), the 50% inhibitory concentration (IC50) in [1] was 1.17 µM. Also, the minimum inhibitory concentration (MIC) was 64 µg/mL (≈ 150 µM) in [2], 32 µg/mL (≈ 75 µM) in assay [3], 8 µg/mL (≈ 18.7 µM) in assay [4] and 16 µg/mL (≈ 37.5 µM) in assay [5].

For `COC(=O)C1CCCC(Nc2[nH]nc3cccc(OCc4ccc(F)c(F)c4)c23)C1` (configuration not stated), the concentration for half-maximal inhibition (IC50) in assay [1] was 38.5 µM. The MIC in [2] (setting [10]), in [3] (setting [11]), in [4] (setting [12]) and in [5] (setting [12]) was 128 µg/mL (≈ 308 µM) each time.

For the compound `c1ccc(COc2ccc(-c3cc(C4CCNCC4)[nH]n3)cc2)cc1`, the IC50 is 384 µM in assay [1], 128 µg/mL (≈ 384 µM) in assay [8] and 200 µg/mL (≈ 600 µM) in assay [9]. Moreover, the MIC in [2] (setting [10]), in assay [3] (setting [11]), in assay [4] (setting [12]) and in assay [5] (setting [12]) was 64 µg/mL (≈ 192 µM) throughout.
